Assay results from US20180237774A1, “METHODS OF SCREENING FOR RIBOSWITCHES AND ATTENUATORS” (priority 2015, published 2018).
Values after ≈ are worked out from the molar mass of the structure shown. Positions of bridges follow the written chain, without caps; N, C: chain ends. Non-standard residues stand in square brackets, D forms with d. Residues, ends and D or L forms follow the SMILES beside them. *: point of attachment. Ileψ(thiazoline)Cys = CC[C@H](C)[C@H](N)C1=N[C@H](C(=O)*)CS1; dOrn = NCCC[C@@H](N)C(=O)O

Legend:
[1] = system: B. subtilis; test: Sublethal antibiotic concentration determination (growth-rate monitoring); type: cell-based, Bacillus subtilis str. 168; settings: for Sublethal concentration (highest antibiotics concentration that did not cause growth-rate inhibition): Table 2; for Sublethal concentrations of antibiotics used in this study: Table 6
Protocol: (§1) A sublethal concentration for the antibiotics lincomycin, erythromycin, chloramphenicol, kanamycin, ofloxacin, ampicilin and bacitracin (Sigma) was determined for each of the organisms used in this study as follows. Bacterial cultures were propagated in LB or BHI O.N. in triplicates and diluted 1:200 into fresh media. Cultures were grown to early exponential phase (OD600=0.1-0.2) and then supplemented with serially diluted antibiotics stocks. The growth rate was dynamically monitored in intervals of 10-15 min using a 96 well plate format OD reader (Infinite M200 Tecan) for a period of at least 4 hours. […] To identify antibiotic-responsive regulators, bacteria were grown in LB or BHI in triplicates as described above and, upon reaching early exponential phase, 5 ml cultures were independently exposed for 15 minutes to the sublethal concentration of each antibiotic as determined above. Bacteria were then collected by centrifugation, flash frozen and stored in −80° C. until RNA extraction.

[2] = system: L. monocytogenes; test: as above; type: cell-based, Listeria monocytogenes EGDe; settings: for Sublethal concentration (highest antibiotics concentration that did not cause growth-rate inhibition): Table 2; for Sublethal concentrations of antibiotics used in this study: Table 6
Protocol: as §1

[3] = system: E. faecalis; test: as above; type: cell-based, Enterococcus faecalis ATCC 29212; settings: for Sublethal concentration (highest antibiotics concentration that did not cause growth-rate inhibition): Table 2; for Sublethal concentrations of antibiotics used in this study: Table 6
Protocol: as §1

[4] = system: L. monocytogenes Wt; test: Minimal inhibitory concentration (MIC) determination in broth; type: cell-based; settings: Listeria monocytogenes, 48 h, BHI, two days at 37° C.
Protocol: (§2) The MIC was determined in broth culturing conditions in the presence of serially diluted antibiotic concentrations. Briefly, the bacterial strains were grown O.N. at 37° C. in BHI agarose plates and 1-3 single colonies were collected into 1 ml of BHI broth. The OD600 was adjusted to 0.01 and then diluted 1:10 into a 96-well plate containing a final volume of 200 μl BHI supplemented with two-fold serial dilutions of lincomycin, erythromycin and chloramphenicol.

[5] = system: L. monocytogenes Δlmo0919; test: as above; type: cell-based, Listeria monocytogenes; settings: for MIC: Listeria monocytogenes, 48 h
Source text: For mutant generation with pMAD-based plasmids^59, ˜600 nt regions of complementarity both upstream and downstream of a targeted region were either ordered as gBlocks (IDT) and amplified with gBlock-Up and Down oligonucleotides (Table 1) complimentary to uniform flanks on each gBlock corresponding to the 40 nts on either side of the pMAD multi-cloning site, or PCR amplified with Phusion High fidelity polymerase and reagents (Finnzymes, F-553) using genomic DNA as a template and then joined by a second splice overlap extension PCR reaction using the first two PCR products as template to generate a Upstream-Downstream (UD) PCR product (Table 1, lmo0919 deletion). PCR products were subsequently purified with QIAquick PCR purification columns (Qiagen, 28104), digested with the SalI and XmaI restriction enzymes (NEB), purified again as before, and ligated into SalI/XmaI digested pMAD plasmid for 1 hr at 25° C. with T4 DNA ligase (NEB, M0202S). 2 μl of each ligation were transformed into chemically competent E. coli Top10 (Invitrogen, C404003) cells according to the manufacturer's instructions. Transformants were screened by PCR and Sanger sequencing for the presence of the appropriate insert. Electrocompetent L. monocytogenes strains were transformed with the respective plasmid and mutagenesis carried out as described previously^59. Briefly, after transformation and plating onto selective BHI, 5 ug/ml erythromycin (Em) 80 ug/ml 5-bromo-4-chloro-3-indolyl-β-D-galactopyranoside (X-gal) plates, bacteria were grown at 30° C. for two days. A single blue colony was picked and transferred to liquid BHI broth and grown for an additional 6 hrs at 30° C. The colony was then diluted 1:1000 into 10 ml of BHI-Em and grown O.N. at 42° C., which prevents pMAD replication in the cytosol owing to a temperature sensitive ori. […]
The MIC was determined in broth culturing conditions in the presence of serially diluted antibiotic concentrations. […]

[6] = system: L. monocytogenes uORF ATG > ACG; test: as above; type: cell-based; settings: Listeria monocytogenes, 48 h
Source text: (§3) For mutant generation with pMAD-based plasmids^59, ˜600 nt regions of complementarity both upstream and downstream of a targeted region were either ordered as gBlocks (IDT) and amplified with gBlock-Up and Down oligonucleotides (Table 1) complimentary to uniform flanks on each gBlock corresponding to the 40 nts on either side of the pMAD multi-cloning site, or PCR amplified with Phusion High fidelity polymerase and reagents (Finnzymes, F-553) using genomic DNA as a template and then joined by a second splice overlap extension PCR reaction using the first two PCR products as template to generate a Upstream-Downstream (UD) PCR product (Table 1, lmo0919 deletion). PCR products were subsequently purified with QIAquick PCR purification columns (Qiagen, 28104), digested with the SalI and XmaI restriction enzymes (NEB), purified again as before, and ligated into SalI/XmaI digested pMAD plasmid for 1 hr at 25° C. with T4 DNA ligase (NEB, M0202S). 2 μl of each ligation were transformed into chemically competent E. coli Top10 (Invitrogen, C404003) cells according to the manufacturer's instructions. Transformants were screened by PCR and Sanger sequencing for the presence of the appropriate insert. Electrocompetent L. monocytogenes strains were transformed with the respective plasmid and mutagenesis carried out as described previously^59. Briefly, after transformation and plating onto selective BHI, 5 ug/ml erythromycin (Em) 80 ug/ml 5-bromo-4-chloro-3-indolyl-β-D-galactopyranoside (X-gal) plates, bacteria were grown at 30° C. for two days. A single blue colony was picked and transferred to liquid BHI broth and grown for an additional 6 hrs at 30° C. The colony was then diluted 1:1000 into 10 ml of BHI-Em and grown O.N. at 42° C., which prevents pMAD replication in the cytosol owing to a temperature sensitive ori. Serial dilutions were plated onto BHI-X-gal-Em plates and grown for two days at 42° C., and the process was reiterated several times until white colonies, in which the plasmid integrated into the genome, were recovered. Colonies were screened by colony PCR, and mutants were confirmed by Sanger sequencing.
as §2

[7] = system: L. monocytogenes ΔAnti-anti-terminator; test: as above; type: cell-based; settings: Listeria monocytogenes, 48 h
Source text: as §3, §2

[8] = system: L. monocytogenes ΔAnti-terminator; test: as above; type: cell-based; settings: Listeria monocytogenes, 48 h
Source text: as §3, §2

[9] = system: 3aa uORF of the lmo0919 ribo-regulator homolog; test: Ribosome profiling (Ribo-seq) of ribosome occupancy over the lmo0919 ribo-regulator uORF; type: cell-based; settings: L. innocua; brief exposure to lincomycin versus control
Protocol: (§4) FIG. 14 is a graph illustrating lincomycin-dependent ribosome stalling in the lmo0919 ribo-regulator.
(§5) To characterize the effects of lincomycin on the interaction between the ribo-regulator and the ribosome levels of ribosome occupancy over the ribo-regulator in control and lincomycin-treated bacteria were measured using ribosome profiling (Ribo-seq) (23, 42). Strikingly, an ˜5 fold increase in ribosome occupancy over the 3aa uORFs in both L. monocytogenes and L. innocua was measured following brief exposure to lincomycin (FIG. 14) (23).

[10] = system: 3aa uORF of the lmo0919 ribo-regulator; test: as above; type: cell-based; settings: L. monocytogenes; brief exposure to lincomycin versus control
Protocol: as §4, §5

[11] = system: lmo0919 regulator; test: Lincomycin-dependent induction of lmo0919 in ErmC-expressing strain; type: cell-based, L. monocytogenes expressing ErmC; settings: ErmC-expressing bacteria, ribosomes resistant to lincomycin
Protocol: FIG. 11 illustrates that the lmo0919 regulator senses ribosome inhibition. L. monocytogenes carrying the ErmC antibiotic resistance gene was assayed for lincomycin dependent induction. In the L. monocytogenes ErmC-expressing strain, in which ribosome are made immune to lincomycin via methylation of A2058 in the 23S rRNA, the lmo0919 regulator is unresponsive to the presence of the antibiotic (red).
The structural alterations in the lmo0919 ribo-regulator could either be mediated by direct binding of the antibiotic to the ribo-regulator (i.e., a riboswitch), or by attenuation, where the lincomycin-inhibited ribosomes stall on a uORF in the ribo-regulator, thus shifting the ribo-regulator structure from a “closed” to an “open” state. To differentiate between direct binding and ribosome-mediated regulation, lincomycin-dependent induction of lmo0919 in L. monocytogenes expressing the ErmC 23S rRNA methyltransferase was measured. In these bacteria the ribosomes are di-methylated at position A2058 of the 23S rRNA, rendering the ribosomes resistant to lincomycin.

[12] = system: lmo0919 5′UTR regulator (rli53); test: Antibiotic-dependent transcriptional readthrough by term-seq and RNA-seq; type: cell-based, L. monocytogenes; settings: 15 minutes exposure to sublethal concentration
Protocol: as §1
(§6) Term-seq average coverage across triplicates was calculated for the premature termination site and the full length gene termination site with a span of 10 nt surrounding each terminator, and the fraction of full length (gene) terminations out of all termination events was used to as a measure of the transcriptional readthrough (FIG. 3A). In cases where the regulator controlled the transcription of a multi-gene operon, which contained internal TSSs in addition to the primary one, RNA-seq was used to determine readthrough in the first gene (FIGS. 4C and 4F). RNA-seq coverage was used to measure the median read coverage over either the regulatory element or the gene, and the ratio between the two (gene-coverage divided by regulator-coverage) was used as an estimate for the short/long transcript ratio generated by regulator activity (FIG. 3A).

[13] = system: lmo1652 regulatory element (rli59); test: as above; type: cell-based, L. monocytogenes
Protocol: as §1, §6

[14] = system: EF2720 regulatory element; test: as above; type: cell-based, E. faecalis
Protocol: as §1
(§7) Term-seq average coverage across triplicates was calculated for the premature termination site and the full length gene termination site with a span of 10 nt surrounding each terminator, and the fraction of full length (gene) terminations out of all termination events was used to as a measure of the transcriptional readthrough (FIG. 3A). […]

[15] = system: msrC (EF1413) termination-based regulator; test: as above; type: cell-based, E. faecalis; settings: upon exposure to the antibiotic
Protocol: as §1, §7

Row | Compound | Sublethal concentration (highest antibiotics concentration that did not cause growth-rate inhibition) [1] [µg/mL] | Sublethal concentrations of antibiotics used in this study [1] [µg/mL] | Sublethal concentration (highest antibiotics concentration that did not cause growth-rate inhibition) [2] [µg/mL] | Sublethal concentrations of antibiotics used in this study [2] [µg/mL] | Sublethal concentration (highest antibiotics concentration that did not cause growth-rate inhibition) [3] [µg/mL] | Sublethal concentrations of antibiotics used in this study [3] [µg/mL] | MIC [4] [µg/mL] | MIC [5] [µg/mL] | Increase in sensitivity upon deletion of lmo0919 ([5]; Δlmo0919 versus wild type L. monocytogenes) [fold] | MIC [6] [µg/mL] | MIC [7] [µg/mL] | MIC [8] [µg/mL] | Increase in ribosome occupancy over the 3aa uORF [9] [fold] | Increase in ribosome occupancy over the 3aa uORF [10] [fold] | Responsiveness of the lmo0919 regulator [11] | Activation of the lmo0919 5′UTR regulator (readthrough) [12] | Response of the lmo1652 regulatory element [13] | Response of the EF2720 regulatory element [14] | Response of msrC promoter and termination-based regulator [15]
1 | CCC[C@@H]1C[C@@H](C(=O)N[C@@H]([C@H]2O[C@H](SC)[C@H](O)[C@@H](O)[C@H]2O)[C@@H](C)O)N(C)C1 [Lincomycin] | 0.5 | 0.5 | 0.25 | 0.25 | 2 | 2 | 1 (≈ 2.46 µM) | 0.25 (≈ 0.615 µM) | 4 | 0.25 (≈ 0.615 µM) | 8 (≈ 19.7 µM) | 0.25 (≈ 0.615 µM) | ~5 | ~5 | no longer responsive | specific activation | responds | respond | 
2 | CC1(C)S[C@@H]2[C@H](NC(=O)[C@H](N)c3ccccc3)C(=O)N2[C@H]1C(=O)O [Ampicillin] | 0.0625 | 0.0625 | 1 | 1 | 2 | 2 |  |  |  |  |  |  |  |  |  |  |  |  | 
3 | CC[C@H](C)[C@H](N)C1=N[C@H](C(=O)N[C@@H](CC(C)C)C(=O)N[C@H](CCC(=O)O)C(=O)N[C@H](C(=O)N[C@H]2CCCCNC(=O)[C@H](CC(N)=O)NC(=O)[C@@H](CC(=O)O)NC(=O)[C@H](Cc3cnc[nH]3)NC(=O)[C@@H](Cc3ccccc3)NC(=O)[C@H]([C@@H](C)CC)NC(=O)[C@@H](CCCN)NC2=O)[C@@H](C)CC)CS1 [Bacitracin] ({Ileψ(thiazoline)Cys}-L[dE]IK[dOrn]I[dF]H[dD]N; lactam 4-C) | 0.125 | 0.125 | 8 | 8 | 1 | 1 |  |  |  |  |  |  |  |  |  |  |  |  | 
4 | CC[C@H]1OC(=O)[C@H](C)[C@@H](O[C@H]2C[C@@](C)(OC)[C@@H](O)[C@H](C)O2)[C@H](C)[C@@H](O[C@@H]2O[C@H](C)C[C@H](N(C)C)[C@H]2O)[C@](C)(O)C[C@@H](C)C(=O)[C@H](C)[C@@H](O)[C@]1(C)O [Erythromycin] | 0.01562 | 0.01562 | 0.03125 | 0.03125 | 0.5 | 0.5 | 0.0312 (≈ 0.0426 µM) | 0.0625 (≈ 0.0852 µM) |  | 0.0625 (≈ 0.0852 µM) | 0.0312 (≈ 0.0426 µM) | 0.0625 (≈ 0.0852 µM) |  |  |  |  | responds |  | increase both the transcription initiation rate and readthrough into the gene
5 | O=C(N[C@H](CO)[C@H](O)c1ccc([N+](=O)[O-])cc1)C(Cl)Cl [Chloramphenicol] | 0.2 | 0.2 | 0.4 | 0.4 | 0.4 | 0.4 | 2 (≈ 6.19 µM) |  |  |  |  |  |  |  |  |  | responds |  | 
6 | NC[C@H]1O[C@H](O[C@H]2[C@H](O)[C@@H](O[C@H]3O[C@H](CO)[C@@H](O)[C@H](N)[C@H]3O)[C@H](N)C[C@@H]2N)[C@H](O)[C@@H](O)[C@@H]1O [Kanamycin] | 0.5 | 0.5 | 0.5 | 0.5 | 16 | 16 |  |  |  |  |  |  |  |  |  |  |  |  | 
